The target of the test is PARG (Homo sapiens, UniProt Q86W56). Kind of test: Biochemical assay (PARG, TFMU-ADPr substrate).
Setting [1] is: 4 nM PARG, 66.2 uM TFMU-ADPr, 3 min at room temperature.

Our source for the IC50 values is patent publication US20260258035A1, “FIVE-MEMBERED AND SIX-MEMBERED NITROGEN-CONTAINING COMPOUND, AND INTERMEDIATE, PREPARATION METHOD AND USE THEREOF” (HANGZHOU SYNRX THERAPEUTICS BIOMEDICAL TECHNOLOGY CO., LTD., priority 2022, published 2026).

A word on the IC50: it is the concentration needed to halve the response being measured. Low readings indicate inhibition by little substance, high ones a need for much substance.

Sequence of PARG (Q86W56 whole entry): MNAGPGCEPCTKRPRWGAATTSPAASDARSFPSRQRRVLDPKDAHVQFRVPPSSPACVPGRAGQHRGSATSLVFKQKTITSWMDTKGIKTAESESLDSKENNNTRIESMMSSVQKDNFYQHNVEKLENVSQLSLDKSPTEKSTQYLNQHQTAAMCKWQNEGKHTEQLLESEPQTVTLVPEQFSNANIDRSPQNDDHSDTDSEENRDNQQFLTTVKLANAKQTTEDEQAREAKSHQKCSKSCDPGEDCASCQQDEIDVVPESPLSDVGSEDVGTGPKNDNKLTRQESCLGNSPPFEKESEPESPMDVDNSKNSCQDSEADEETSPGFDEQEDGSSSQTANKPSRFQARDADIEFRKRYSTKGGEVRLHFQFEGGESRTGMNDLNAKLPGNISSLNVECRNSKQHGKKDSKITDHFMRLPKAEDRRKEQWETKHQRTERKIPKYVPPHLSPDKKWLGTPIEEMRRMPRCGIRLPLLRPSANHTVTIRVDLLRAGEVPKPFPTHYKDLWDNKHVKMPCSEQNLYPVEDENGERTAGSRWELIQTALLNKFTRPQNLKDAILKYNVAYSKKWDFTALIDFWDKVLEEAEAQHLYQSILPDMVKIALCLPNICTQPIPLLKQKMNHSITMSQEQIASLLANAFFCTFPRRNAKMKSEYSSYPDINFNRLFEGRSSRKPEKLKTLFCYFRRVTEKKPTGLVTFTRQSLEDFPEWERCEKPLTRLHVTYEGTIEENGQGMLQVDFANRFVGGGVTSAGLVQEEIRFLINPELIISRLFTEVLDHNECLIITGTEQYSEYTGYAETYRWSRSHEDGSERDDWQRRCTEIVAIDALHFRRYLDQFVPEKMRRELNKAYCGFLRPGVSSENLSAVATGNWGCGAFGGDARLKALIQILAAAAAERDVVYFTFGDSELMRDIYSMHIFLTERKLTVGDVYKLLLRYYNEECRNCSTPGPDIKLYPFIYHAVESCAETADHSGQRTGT

`C[C@@H]1CN(c2cc(S(=O)(=O)NC3(C#N)CC3)cn3c(-c4nnc(C(F)F)s4)ncc23)[C@@H](C)CN1C(=O)C1(C)CC1` [Example 93, N-(1-cyanocyclopropyl)-3-(5-(difluoromethyl)-1,3,4-thiadiazol-2-yl)-8-((2S,5R)-2,5-dimethyl-4-(1-methylcyclopropane-1-carbonyl)piperazin-1-yl)imidazo[1,5-a]pyridine-6-sulfonamide] yielded an IC50 under setting [1] of less than 100 nM and a 50% inhibitory concentration (IC50) (PARG, TFMU-ADPr substrate) of 75.9 nM.
In the same order, the values of `N#CC1(NS(=O)(=O)c2cc(NC3CCC(OC(F)(F)F)C3)c3cnc(-c4nnc(C(F)F)s4)n3c2)CC1` (centres unmarked) [Example 151, N-(1-cyanocyclopropyl)-3-(5-(difluoromethyl)-1,3,4-thiadiazol-2-yl)-8-((3-(trifluoromethoxy)cyclopentyl)amino)imidazo[1,5-a]pyridine-6-sulfonamide] are 100 to 500 nM and 178 nM.
Consider `Cc1ncc(-c2cnc3c(N4CCN(C(=O)C(C)C)CC4)cc(S(=O)(=O)NC4(C#N)CC4)cn23)s1` [Example 1, N-(1-cyanocyclopropyl)-8-(4-isobutyrylpiperazin-1-yl)-3-(2-methylthiazol-5-yl)imidazo[1,2-a]pyridine-6-sulfonamide], for which inhibition (PARG, TFMU-ADPr substrate) was half-maximal at 1540 nM (IC50).
In turn, `N#CC1(NS(=O)(=O)c2cc(N3CCC(OCC(F)(F)F)CC3)c3cnc(-c4nnc(C(F)F)s4)n3c2)CC1` [Example 47, N-(1-cyanocyclopropyl)-3-(5-(difluoromethyl)-1,3,4-thiadiazol-2-yl)-8-(4-(2,2,2-trifluoroethoxy)piperidin-1-yl)imidazo[1,5-a]pyridine-6-sulfonamide] gave an IC50 under setting [1] of less than 100 nM and an IC50 (PARG, TFMU-ADPr substrate) of 5.91 nM.
On to `CC(C)C(=O)N1CCN(c2cc(S(=O)(=O)NC3(C#N)CC3)cn3c(-c4cc5n(n4)CC(F)C5)cnc23)CC1` (centres unmarked) [Example 10, N-(1-cyanocyclopropyl)-3-(5-fluoro-5,6-dihydro-4H-pyrrolo[1,2-b]pyrazol-2-yl)-8-(4-isobutyrylpiperazin-1-yl)imidazo[1,2-a]pyridine-6-sulfonamide], for which the IC50 under setting [1] lay in the range of 500 to 1000 nM.
`Cc1nnc(-c2cnc3c(N4CCN(C(=O)C(C)C)CC4)cc(S(=O)(=O)NC4(C#N)CC4)cn23)s1` [Example 2, N-(1-cyanocyclopropyl)-8-(4-isobutyrylpiperazin-1-yl)-3-(5-methyl-1,3,4-thiadiazol-2-yl)imidazo[1,2-a]pyridine-6-sulfonamide] gave an IC50 (PARG, TFMU-ADPr substrate) of 2100 nM.
For `N#CC1(NS(=O)(=O)c2cc(N3CCC(O)C3)c3cnc(-c4nnc(C(F)F)s4)n3c2)CC1` (centres unmarked) [Example 42, N-(1-cyanocyclopropyl)-3-(5-(difluoromethyl)-1,3,4-thiadiazol-2-yl)-8-(3-hydroxypyrrolidin-1-yl)imidazo[1,5-a]pyridine-6-sulfonamide], the 50% inhibitory concentration (IC50) by setting is: under setting [1], less than 100 nM; (PARG, TFMU-ADPr substrate) 18 nM.
For `CN1CCN(c2cc(S(=O)(=O)NC3(C#N)CC3)cn3c(-c4nnc(C(F)F)s4)ncc23)CC1` [Example 38, N-(1-cyanocyclopropyl)-3-(5-(difluoromethyl)-1,3,4-thiadiazol-2-yl)-8-(4-methylpiperazin-1-yl)imidazo[1,5-a]pyridine-6-sulfonamide], in that order: less than 100 nM and 16.4 nM.
`C[C@H]1CN(c2cc(S(=O)(=O)NC3(C)COC3)cn3c(-c4nnc(C(F)F)s4)nc(Cl)c23)C[C@H](CO)O1` [Example 133, 1-chloro-3-(5-(difluoromethyl)-1,3,4-thiadiazol-2-yl)-8-((2R,6S)-2-(hydroxymethyl)-6-methylmorpholino)-N-(3-methyloxetan-3-yl)imidazo[1,5-a]pyridine-6-sulfonamide] came in with a half-maximal inhibitory concentration (IC50) (PARG, TFMU-ADPr substrate) of 13.2 nM. This lies in the double-digit nanomolar range.
For `CCC(=O)N1CC=C(c2cnc3c(N4CCN(C(=O)C(C)C)CC4)cc(S(=O)(=O)NC4(C#N)CC4)cn23)C1` [Example 20, N-(1-cyanocyclopropyl)-8-(4-isobutyrylpiperazin-1-yl)-3-(1-propionyl-2,5-dihydro-1H-pyrrol-3-yl)imidazo[1,2-a]pyridine-6-sulfonamide], the IC50 was less than 100 nM under setting [1] and 178 nM (PARG, TFMU-ADPr substrate).
Turning to `CC1(O)CCN(c2cc(S(=O)(=O)NC3(C)CC3)cn3c(-c4nnc(C(F)F)s4)nnc23)CC1` [Example 116, 3-(5-(difluoromethyl)-1,3,4-thiadiazol-2-yl)-8-(4-hydroxy-4-methylpiperidin-1-yl)-N-(1-methylcyclopropyl)-[1,2,4]triazolo[4,3-a]pyridine-6-sulfonamide], the IC50 by setting is: under setting [1], less than 100 nM; (PARG, TFMU-ADPr substrate) 50 nM.
For `CN1CCN(c2cc(S(=O)(=O)NC3(C#N)CC3)cn3c(-c4nnc(C(F)F)s4)ncc23)CC1=O` [Example 41, N-(1-cyanocyclopropyl)-3-(5-(difluoromethyl)-1,3,4-thiadiazol-2-yl)-8-(4-methyl-3-oxopiperazin-1-yl)imidazo[1,5-a]pyridine-6-sulfonamide], in that order: less than 100 nM and 29.8 nM.
For `CC(C)C(=O)N1CCN(c2cc(S(=O)(=O)NC3(COC(F)(F)F)CC3)cn3c(-c4nnc(C(F)F)s4)ncc23)CC1` [Example 49, 3-(5-(difluoromethyl)-1,3,4-thiadiazol-2-yl)-8-(4-isobutyrylpiperazin-1-yl)-N-(1-((trifluoromethoxy)methyl)cyclopropyl)imidazo[1,5-a]pyridine-6-sulfonamide], in that order: less than 100 nM and 38.4 nM.
In the same order, the values of `CC(=O)N1CC2(CC=C(c3cc(S(=O)(=O)NC4(C#N)CC4)cn4c(-c5nnc(C(F)F)s5)cnc34)C2)C1` [Example 13, 8-(2-acetyl-2-azaspiro[3.4]oct-6-en-6-yl)-N-(1-cyanocyclopropyl)-3-(5-(difluoromethyl)-1,3,4-thiadiazol-2-yl)imidazo[1,2-a]pyridine-6-sulfonamide] are less than 100 nM and 10.9 nM.
For `C[C@@H]1CN(c2cc(S(=O)(=O)NC3(C#N)CC3)cn3c(-c4nnc(C(F)F)s4)ncc23)CCN1C(=O)C1CNC1` [Example 288, (R)-8-(4-(azetidine-3-carbonyl)-3-methylpiperazin-1-yl)-N-(1-cyanocyclopropyl)-3-(5-(difluoromethyl)-1,3,4-thiadiazol-2-yl)imidazo[1,5-a]pyridine-6-sulfonamide], the IC50 (PARG, TFMU-ADPr substrate) amounted to 6.03 nM.
`N#CC1(NS(=O)(=O)c2cc(-c3ccc4c(c3)CCO4)c3cnc(-c4nnc(C(F)F)s4)n3c2)CC1` [Example 140, N-(1-cyanocyclopropyl)-3-(5-(difluoromethyl)-1,3,4-thiadiazol-2-yl)-8-(2,3-dihydrobenzofuran-5-yl)imidazo[1,5-a]pyridine-6-sulfonamide]: the IC50 runs as follows: under setting [1], less than 100 nM; (PARG, TFMU-ADPr substrate) 26.2 nM.
For `N#CC1(NS(=O)(=O)c2cc(N3CCC(F)(CO)CC3)c3cnc(-c4nnc(C(F)F)s4)n3c2)CC1` [Example 90, N-(1-cyanocyclopropyl)-3-(5-(difluoromethyl)-1,3,4-thiadiazol-2-yl)-8-(4-fluoro-4-(hydroxymethyl)piperidin-1-yl)imidazo[1,5-a]pyridine-6-sulfonamide], in that order: less than 100 nM and 34.7 nM.
For `C[C@@H]1CN(c2cc(S(=O)(=O)NC3CC3)cn3c(-c4nnc(C(F)F)s4)nnc23)CCN1C(=O)C1(C)CC1` [Example 118, (R)-N-cyclopropyl-3-(5-(difluoromethyl)-1,3,4-thiadiazol-2-yl)-8-(3-methyl-4-(1-methylcyclopropane-1-carbonyl)piperazin-1-yl)-[1,2,4]triazolo[4,3-a]pyridine-6-sulfonamide], in that order: less than 100 nM and 72.4 nM.
As for `N#CC1(NS(=O)(=O)c2cc(N3CCC(CO)(C(F)(F)F)CC3)c3cnc(-c4nnc(C(F)F)s4)n3c2)CC1` [Example 145, N-(1-cyanocyclopropyl)-3-(5-(difluoromethyl)-1,3,4-thiadiazol-2-yl)-8-(4-(hydroxymethyl)-4-(trifluoromethyl)piperidin-1-yl)imidazo[1,5-a]pyridine-6-sulfonamide], the half-maximal inhibitory concentration (IC50) reads like this: under setting [1], 100 to 500 nM; (PARG, TFMU-ADPr substrate) 316 nM.
Take `CC(C)C(=O)N1CCN(c2cc(S(=O)(=O)NC3(C#N)CC3)cn3c(-c4cc5n(n4)CCCC5F)cnc23)CC1` (centres unmarked) [Example 8]: the concentration for half-maximal inhibition (IC50) (PARG, TFMU-ADPr substrate) worked out at 9690 nM.
The same measure, in the same setting: the result for `C[C@H]1CN(c2cc(S(=O)(=O)NC3(C)COC3)cn3c(-c4nnc(C(F)(F)F)s4)nc(Cl)c23)C[C@H](C)O1` [Example 134, 1-chloro-8-((2S,6S)-2,6-dimethylmorpholino)-N-(3-methyloxetan-3-yl)-3-(5-(trifluoromethyl)-1,3,4-thiadiazol-2-yl)imidazo[1,5-a]pyridine-6-sulfonamide] reads 69.2 nM.
With `Cc1c(-c2cc(S(=O)(=O)NC3(C#N)CC3)cn3c(-c4nnc(C(F)F)s4)ncc23)cnn1C(C)C` [Example 143, N-(1-cyanocyclopropyl)-3-(5-(difluoromethyl)-1,3,4-thiadiazol-2-yl)-8-(1-isopropyl-5-methyl-1H-pyrazol-4-yl)imidazo[1,5-a]pyridine-6-sulfonamide], the IC50 is less than 100 nM under setting [1] and 12 nM (PARG, TFMU-ADPr substrate).
In the same order, the values of `COc1ccc(N(C)c2cc(S(=O)(=O)NC3(C#N)CC3)cn3c(-c4nnc(C(F)F)s4)ncc23)cc1` [Example 45, N-(1-cyanocyclopropyl)-3-(5-(difluoromethyl)-1,3,4-thiadiazol-2-yl)-8-((4-methoxyphenyl)(methyl)amino)imidazo[1,5-a]pyridine-6-sulfonamide] are 100 to 500 nM and 135 nM.
The compound `CN1CC(Nc2cc(S(=O)(=O)NC3(C#N)CC3)cn3c(-c4nnc(C(F)F)s4)ncc23)C1` [Example 150, N-(1-cyanocyclopropyl)-3-(5-(difluoromethyl)-1,3,4-thiadiazol-2-yl)-8-((1-methylazetidin-3-yl)amino)imidazo[1,5-a]pyridine-6-sulfonamide] showed an IC50 under setting [1] of less than 100 nM and an IC50 (PARG, TFMU-ADPr substrate) of 8.29 nM.
